{"source": "patent US11786507B2", "about": "“Methods of treating HIV-associated neurological disorders (HAND)” (priority 2020, dated 2023)", "key": {"[1]": {"tested_on": "microglia in CORT of Wt and iTat mice", "assay": "Iba-1 immunohistochemistry (DAB), microglia morphology in CORT", "assay_type": "in vivo, mouse", "details": "PAM-treated iTat mice", "procedure": "Mice were anesthetized using avertin (tribromoethanol) and transcardially perfused with first phosphate-buffered saline (PBS) and then 4% paraformaldehyde (PFA). Then, the brains were dissected out, fixed in 4% PFA at 4° C. overnight, dehydrated in 30% sucrose, embedded in OCT, sagittally sectioned (20 μm) using a cryostat, and preserved in a cryoprotectant containing 30% ethylene glycol, 30% glycerol, and 40% PBS. For staining, floating sections were permeabilized in 0.1% triton X-100 in PBS (PBST), blocked by 1% BSA in PBST, probed by Iba-1 antibody (Wako, catalog #019-19741, and 1:800 dilution), inactivated endogenous peroxidases in 1% hydrogen peroxide, probed again by a goat anti-rabbit secondary antibody (Southern Biotech, catalog #4030-05, and 1:200 dilution), and developed using a DAB kit (Abeam, catalog #ab103723). All images were taken using a Nikon Eclipse E800 microscope with a 20× objective and analyzed by the Cellprofiler program. Every section was averaged from three brain regions prefrontal, occipital and parietal cortex, and the average of the three sections was used to represent individual animals.\nTo further determine the relationship between microglia activation, Tat neurotoxicity, and PAM/α7 nAChR, immunohistochemistry staining was performed on microglia in CORT of Wt and iTat mice treated with and without PAM (FIG. 1). […]"}, "iTat mice": {"tested_on": "iTat mice", "assay": "Morris Water Maze (MWZ), training stage and probe test", "assay_type": "in vivo, mouse", "details": "mouse, in vivo", "excerpt": "Doxycycline (Dox)-inducible and astrocyte-specific HIV-1 Tat-transgenic mice (iTat) were generated as previously described.^38 Wild-type (Wt, C57BL/6) and α7 nAChR knockout mice (α7^−/−, B6.129S7-Chrna^7tm1Ba/J) were purchased from the Jackson Laboratory (Bar Harbor, ME). All the animal procedures were approved by the Institutional Animal Care and Use Committee. Mice were housed with a 12-hour light and 12-hour dark photoperiod and provided water and food ad libitum. α7^−/− iTat mice were generated by cross breeding iTat mice with α7^−/− mice. α7^−/− genotyping was slightly modified with the JumpStart™ Taq DNA Polymerase-based PCR (JumpStart™ Taq DNA Polymerase, Sigma, catalog #D9307). […] Mice of 10-14 weeks old with body weights of 20-35 grams were fed with Dox-containing diet (0.625 g/kg, Envigo, catalog #TD.01306) as stated.\nOpen Field Test (OPT) and Morris Water Maze (MWZ) were performed sequentially using a computerized video tracking system (Anymaze, Stoelting) to determine the spontaneous locomotor activity and spatial learning and memory, respectively. For OPT, each mouse was allowed to move freely around a clear acrylic chamber (40.5×40.5×30.5 cm) for 10 minutes. Travel distance and maximum speed was determined by the AnyMaze software. For MWZ, a circle pool (1.2 m diameter) surrounded with a curtain was divided into four equal quadrants, and four signs with different shape were fixed onto the middle of each quadrant wall above the opaque water (24±1° C.). A hidden platform (1.5 cm below water surface) was put into a certain quadrant. Two stages consisting of 5-day training and probe test were carried out. In the training stage, four trials with a 15-20 minute interval were conducted in the every-day training, and for each trial mice were allowed to freely seek the platform within 90 seconds right after they were randomly put into one quadrant facing to the pool wall. If the mice found the platform within 90 seconds, 10 seconds would be added to allow them staying on the platform for memorizing, however, if failed, they would be directed toward the platform and allowed to stay on it for 15 seconds. Mice that were immobile or floating and unable to find the platform during the training stages were excluded from the experiments. Probe test was carried out on the next day following the 5-day training stage with a 60 seconds trial, and the platform was removed to prevent the mice from climbing onto it during the testing. One day after the behavioral tests, mice were euthanized and the brains were harvested.\nTo determine if α7 nAChR is involved in HAND, iTat mice were fed with Dox-containing food pellets for 7 days, […], and then subjected to open field test (OPT) for locomotor activity on day 14, and Morris Water Maze test (MWZ) for learning and spatial memory on day 15-20, and euthanized to harvest tissues on day 21 (FIG. 1A). Dox-containing food pellet feeding and PAM injection continued during the next 7 days of behavioral tests. To minimize the effects of injection on behavioral tests, PAM was injected 5 hours after each behavioral test."}}, "data": [{"smiles": "COc1cc(OC)c(NC(=O)Nc2cc(C)on2)cc1Cl", "note": "[PAM, 1-(5-chloro-2,4-dimethoxy-phenyl)-3-(5-methyl-isoxazol-3-yl)-urea]", "values": [{"measurement": "Number of microglia branches and endpoints", "setting": "[1]", "result": "fewer branches and endpoints than PAM-treated Wt mice and DMSO-treated iTat mice"}, {"measurement": "MWZ probe test latency to platform", "setting": "iTat mice", "result": "decreases of latency to platform in both male iTat and Wt mice"}, {"measurement": "MWZ probe test platform entries, time at platform, distance to platform", "setting": "iTat mice", "result": "no differences"}, {"measurement": "MWZ probe test time at target quadrant and distance to target quadrant", "setting": "iTat mice", "result": "reversed by PAM treatment with the differences in distance to target quadrant"}, {"measurement": "MWZ training stage cumulative travel distance", "setting": "iTat mice", "result": "differences of cumulative travel times in male iTat mice on day 4 and female iTat mice on day 2"}, {"measurement": "MWZ training stage escape latency and cumulative distance", "setting": "iTat mice", "result": "only some improvements on male Wt mice"}, {"measurement": "MWZ training stage escape latency time", "setting": "iTat mice", "result": "differences of escape latency time in male iTat mice on day 4 and 5 and female iTat mice on day 2 and 4"}]}]}
